Results: patent US8338624B2, “Isoflavone derivatives and uses thereof” (Yeda Research and Development Co., Ltd., priority 2007, dated 2012)

Key:
[1] = system: T47D mammary cancer cells; test: DNA synthesis by [3H]-thymidine incorporation, T47D cells; type: cell-based, human; settings: Homo sapiens
Protocol: (§1) Cells were cultured in MEM supplemented with 10% FCS and antibiotics. Cells were grown to subconfluence and then treated with various hormones or agents as described by Somjen et al. (Somjen et al., 1998). The cells were characterized in terms of expression of mRNAs for estrogen […] by real time PCR, and the results are summarized in Table 1. N87, 320DM and H295R cells expressed mRNAs for both ERs. The ratio of ERα to ERβ was 1:8.5, 1:30 and 1:1.8 in N87, 320DM and H295R cells, respectively. Ovarian A2780 and prostate C4-24 cells expressed mainly mRNA for ERβ, and the ratio of ERβ to ERα was 300:1 and 70:1, respectively. MLS ovarian cells expressed mRNA only for ERβ. The ratio of ERα to ERβ in T47D cells has been reported to be 9:1.
(§2) [^3H]-Thymidine incorporation into DNA was used for the assessment of the various effects (proliferative or inhibitory) of various isoflavones, isoflavone derivatives and known cytotoxic drugs in the above-mentioned cells. Cells were grown until subconfluence using conditions described in Somjen et al. (Somjen et al., 1998) and then treated with various agents for 24 or 48 h as indicated. At the end of incubation, [^3H]-thymidine was added for two hours. Cells were then treated with 10% ice-cold trichloroacetic (TCA) for 5 min and washed twice with 5% TCA and then with cold ethanol. The cellular layer was dissolved in 0.3 ml of 0.3 M NaOH, aliquots were taken for counting radioactivity, and [^3H]-thymidine incorporation into DNA was calculated.

K-562 leukemia cell line = test: NCI In Vitro Cell Line Screening, K-562; type: cell-based; settings: Homo sapiens, K562, read-out: log10 GI50 (converted)
Protocol: (§3) An in vitro cell line screen for the t-boc derivative of daidzein (compound 9) was performed at the NCI/NIH US utilizing the In Vitro Cell Line Screening Project (IVCLSP) (National Cancer Institute, Developmental Therapeutics Program, Information Technology Branch, Rockville, Md., USA).
(§4) The operation of this screen utilized 60 different human tumor cell lines, representing leukemia, melanoma and cancers of the lung, colon, brain, ovary, breast, prostate, and kidney. […] Using these algorithms, it is possible to assign a putative mechanism of action to a test compound, or to determine that the response pattern is unique and not similar to that of any of the standard prototype compounds included in the NCI database.
(§5) To facilitate analysis of the data, three endpoints were calculated for each cell line: The GI50 value, which is the negative log10 of the concentration required to inhibit the growth of that cell line by 50% (relative to untreated cells); TGI, the negative log10 of minimum concentration that causes total growth inhibition; and LC50, which reflects the negative log10 concentration needed to kill 50% of the cells. A Mean Graph was used as a way of easily visualizing the results from all 60 cell lines at once. To generate this graph, the mean of GI50 values across all 60 cell lines was calculated. […]

[2] = system: SK-MEL-5 melanoma cell line; test: NCI In Vitro Cell Line Screening, SK-MEL-5; type: cell-based; settings: Homo sapiens, read-out: log10 GI50 (converted)
Protocol: as §3, §4, §5

[3] = system: human prostate C4-2B cancer cells; test: DNA synthesis by [3H]-thymidine incorporation, C4-2B cells; type: cell-based
Protocol: as §1, §2

[4] = system: 320DM human colon cancer cells; test: DNA synthesis by [3H]-thymidine incorporation, 320DM cells; type: cell-based
Protocol: as §1
as §2, with “(Somjen et al., 1998) and then treated with various agents for 24 or 48 h as indicated.” left out

[5] = system: EKVX non small lung cancer cell line; test: NCI In Vitro Cell Line Screening, EKVX; type: cell-based; settings: Homo sapiens, read-out: log10 GI50 (converted)
Protocol: as §3, §4, §5

CC(C)(C)OC(=O)NCCCCCCNC(=O)COc1ccc2c(=O)c(-c3ccc(O)cc3)coc2c1 [Compound 9]
inhibition at 10 µM [1]: 24 to 40% | GI50 (K-562 leukemia cell line): 646 nM | GI50 [2]: 631 nM | inhibition at 0.03 µM ([3]; Homo sapiens, at 30 nM): 30% | inhibition at 0.3 µM ([3]; Homo sapiens, at 300 nM): ~50% | DNA synthesis, ratio experimental/control (E/C) ([3]; compound at 0.3 μM): 0.28 ± 0.2 | incubation time at which plateau of inhibition of DNA synthesis was reached [4]: 72 h | DNA synthesis, ratio experimental/control (E/C) ([4]; 9 (0.3 μM) + E2 30 nM): 1.08 ± 0.16 | DNA synthesis, ratio experimental/control (E/C) ([4]; 9 (0.3 μM) + E2 0.3 μM): 1.90 ± 0.05 | anti-proliferative effect in presence of apoptosis inhibitor ([4]; 9 at 0.3 μM + Z-VADFK): the anti-proliferative effect of 9 was not discernible | DNA synthesis, ratio experimental/control (E/C) ([4]; 9 at 0.3 μM + Z-VADFK (25 μM)): 1.18 ± 0.14 | suppression of the proliferative effect of estradiol ([4]; 9 at 0.3 μM + estradiol 300 nM): could not suppress its proliferative effect | DNA synthesis, ratio experimental/control (E/C) ([4]; 9 at 0.3 μM alone (Table 3)): 0.63 ± 0.11 | DNA synthesis, ratio experimental/control (E/C) ([4]; 9 at 0.3 μM alone (Table 4)): 0.68 ± 0.14 | DNA synthesis, ratio experimental/control (E/C) ([4]; 9 at 3 μM + Z-VADFK (25 μM)): 0.5 ± 0.11 | DNA synthesis, ratio experimental/control (E/C) ([4]; 9 at 3 μM alone (Table 4)): 0.04 ± 0.22 | effect on [3H]-thymidine incorporation into DNA ([4]; 15 to 6000 nM): dose dependent decreases | inhibition at 0.3 µM ([4]; Homo sapiens, 9 at 0.3 μM alone): 32% | inhibition at 3 µM ([4]; Homo sapiens, 9 at 3 μM alone): ≤ 96% | DNA synthesis, ratio experimental/control (E/C) ([4]; compound at 3 μM): 0.08 ± 0.01 | DNA synthesis (% of control) ([4]; estradiol 30 nM + 0.3 μM compound 9): 100% | GI50 [5]: 1950 nM
